The test system of one data set is MCF7. The experiment in a line: Cytotoxicity against human MCF7 cells assessed as reduction in cell viability measured after 48 hrs by SRB assay. Type of data set: functional.
Data set [1] concerns MDA-MB-231. The experiment in a line: Cytotoxicity against human MDA-MB-231 cells assessed as reduction in cell viability measured after 48 hrs by SRB assay. Type of data set: functional. On the technique in general: In SRB staining, fixed cells bind dye roughly in proportion to their protein.
The test system of the next data set is BT-549. The experiment in a line: Cytotoxicity against human BT-549 cells assessed as reduction in cell viability measured after 48 hrs by SRB assay. The data set is classed as functional.
The next data set relates to T47D. As to the kind of experiment: Cytotoxicity against human T47D cells assessed as reduction in cell viability measured after 48 hrs by SRB assay. Type of data set: functional.
The subject of another data set is MDA-MB-468. The experiment in a line: Cytotoxicity against human MDA-MB-468 cells assessed as reduction in cell viability measured after 48 hrs by SRB assay. The data set is classed as functional.
A short description of data set [2]: Cytotoxicity against African green monkey Vero cells assessed as reduction in cell viability measured after 48 hrs by SRB assay. The conditions noted are these: chlorocebus sabaeus. The data set is classed as toxicity, cell-based.
Data set [3] concerns the target T1, Aromatase (Homo sapiens, UniProt P11511).
T1 sequence (P11511 whole entry): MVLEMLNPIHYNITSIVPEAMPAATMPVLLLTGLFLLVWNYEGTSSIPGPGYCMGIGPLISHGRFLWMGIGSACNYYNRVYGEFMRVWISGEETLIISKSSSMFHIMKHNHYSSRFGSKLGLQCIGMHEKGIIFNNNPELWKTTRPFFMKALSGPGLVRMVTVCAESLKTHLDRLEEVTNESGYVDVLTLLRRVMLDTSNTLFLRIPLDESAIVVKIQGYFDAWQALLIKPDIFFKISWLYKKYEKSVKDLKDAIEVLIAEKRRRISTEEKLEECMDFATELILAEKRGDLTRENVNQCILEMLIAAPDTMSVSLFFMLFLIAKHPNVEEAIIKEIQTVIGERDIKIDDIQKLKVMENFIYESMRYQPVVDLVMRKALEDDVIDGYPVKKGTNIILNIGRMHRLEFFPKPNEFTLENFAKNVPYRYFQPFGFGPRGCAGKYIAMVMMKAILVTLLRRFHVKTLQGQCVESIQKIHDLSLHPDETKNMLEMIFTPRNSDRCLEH
As to the kind of experiment: Inhibition of aromatase in human MCF7 cells using androstenedione as substrate measured after 2 hrs. Type of data set: cell-based.

Data set [4] has as its target Poly [ADP-ribose] polymerase 2 (Homo sapiens, UniProt Q9UGN5). The experiment in a line: Inhibition of PARP-2 (unknown origin).
Another data set addresses Histone deacetylase. As to the kind of experiment: Inhibition of HDAC (unknown origin). Type of data set: protein assay, Homo sapiens.
For the next data set, the target named is Carbonic anhydrase 2 (Homo sapiens, UniProt P00918). The experiment in a line: Inhibition of CA2 (unknown origin) using p-nitrophenyl acetate as substrate preincubated for 10 mins followed by substrate addition and measured after 30 mins by spectrophotometry.
Data set [5] concerns MDA-MB-231. The experiment in a line: Cytotoxicity against human MDA-MB-231 cells assessed as reduction in cell viability measured after 48 hrs by MTT assay. The conditions noted are these: MDA-MB-231, 48 h. The data set is classed as functional, cell-based.
For data set [6], the target named is T2, Aromatase (Rattus norvegicus, UniProt P22443).
T2 sequence (P22443 whole entry): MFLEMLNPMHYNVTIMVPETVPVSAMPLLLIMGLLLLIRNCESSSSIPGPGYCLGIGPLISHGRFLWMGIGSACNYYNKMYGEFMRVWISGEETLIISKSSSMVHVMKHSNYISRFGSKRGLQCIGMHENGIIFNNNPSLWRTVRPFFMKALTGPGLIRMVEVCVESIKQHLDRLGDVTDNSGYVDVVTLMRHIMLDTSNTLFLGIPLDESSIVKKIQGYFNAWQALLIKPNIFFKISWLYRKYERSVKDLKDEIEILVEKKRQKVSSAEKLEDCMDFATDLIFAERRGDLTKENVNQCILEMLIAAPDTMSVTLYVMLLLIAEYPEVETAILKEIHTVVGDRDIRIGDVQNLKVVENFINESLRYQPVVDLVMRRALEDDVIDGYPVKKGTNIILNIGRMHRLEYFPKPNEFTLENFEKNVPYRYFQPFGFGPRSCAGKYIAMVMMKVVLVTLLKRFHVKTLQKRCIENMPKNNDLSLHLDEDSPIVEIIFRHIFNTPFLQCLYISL
The experiment in a line: Inhibition of rat aromatase measured after 2 hrs by ELISA. For orientation: In an ELISA, binding on a coated surface is turned into a signal by an enzyme label.

The test system of another data set is RPMI-8226. As to the kind of experiment: Cytotoxicity against human RPMI-8226 cells assessed as reduction in cell viability measured after 48 hrs by SRB assay. The data set is classed as functional, cell-based. As to conditions: RPMI-8226, 48 h.

Chain of Poly [ADP-ribose] polymerase 2 (Q9UGN5 whole entry): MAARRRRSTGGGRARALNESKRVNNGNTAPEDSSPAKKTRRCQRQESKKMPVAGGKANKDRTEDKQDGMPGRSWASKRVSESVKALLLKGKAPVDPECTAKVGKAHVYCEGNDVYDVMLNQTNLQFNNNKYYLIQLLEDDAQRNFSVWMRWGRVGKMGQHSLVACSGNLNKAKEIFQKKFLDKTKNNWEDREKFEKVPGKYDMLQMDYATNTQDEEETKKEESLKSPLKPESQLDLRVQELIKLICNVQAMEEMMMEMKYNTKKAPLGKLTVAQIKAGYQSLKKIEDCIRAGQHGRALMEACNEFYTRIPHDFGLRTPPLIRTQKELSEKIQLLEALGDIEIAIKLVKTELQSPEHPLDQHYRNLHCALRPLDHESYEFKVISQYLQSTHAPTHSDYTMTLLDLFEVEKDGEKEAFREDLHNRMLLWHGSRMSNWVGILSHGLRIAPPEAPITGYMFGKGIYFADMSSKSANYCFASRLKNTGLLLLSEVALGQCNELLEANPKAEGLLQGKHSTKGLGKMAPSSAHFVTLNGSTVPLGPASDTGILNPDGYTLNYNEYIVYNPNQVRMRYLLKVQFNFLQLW

The GI50 is the concentration at which growth is held to half of that of the control. For `Cc1ccc(S(=O)(=O)N2CCN(Cc3nc4cc(F)ccc4o3)CC2)cc1`, the GI50 in the data set with MCF7 came to 1.73 µM.

Regarding `O=S(=O)(c1cccc2ccccc12)N1CCN(Cc2nc3cc(F)ccc3o2)CC1`, in the data set with MCF7, the GI50 was determined as 12.5 µM.

On to `O=S(=O)(c1ccccc1)N1CCN(Cc2nc3cc(F)ccc3o2)CC1`, for which the GI50 in the data set with MCF7 came out at 8.56 µM.

The IC50 is the concentration needed to halve the response being measured. `CC(C)(C)c1ccc(S(=O)(=O)N2CCN(Cc3nc4cc(F)ccc4o3)CC2)cc1`: the 50% growth inhibitory concentration (GI50) in the data set with MCF7 came to 0.22 µM; in the data set on MDA-MB-231 [1] it was 0.49 µM; with BT-549, 1.73 µM; in the data set with T47D, 2.55 µM; in the data set with MDA-MB-468, 0.87 µM. The GI50 at 48 h in data set [2] amounted to 67.1 µM. The half-maximal inhibitory concentration (IC50) at Aromatase [3] is 0.0649 µM; in data set [4], 0.739 µM; against Histone deacetylase, 1.125 µM; at Carbonic anhydrase 2 it was 4.1 µM.

With `O=[N+]([O-])c1ccc(S(=O)(=O)N2CCN(Cc3nc4cc(F)ccc4o3)CC2)cc1`, the concentration for 50% growth inhibition (GI50) with MCF7 came to 1.02 µM.

On to `CC(C)(C#N)c1cc(Cn2cncn2)cc(C(C)(C)C#N)c1` [ANASTROZOLE], for which the IC50 in the data set on MDA-MB-231 [5] is 1.21 µM; against Aromatase [6], 3.93 µM.

As for `CCS(=O)(=O)N1CCN(Cc2nc3cc(F)ccc3o2)CC1`, the 50% growth inhibitory concentration (GI50) in the data set on MCF7 came to 14.4 µM.

Consider `O=S(=O)(N1CCCCC1)N1CCN(Cc2nc3cc(F)ccc3o2)CC1`, for which the GI50 in the data set on MCF7 was found to be 9.33 µM.

For `O=S(=O)(c1ccc(F)cc1)N1CCN(Cc2nc3cc(F)ccc3o2)CC1`, the GI50 in the data set with MCF7 came to 6.52 µM.

On to `O=Cc1ccc(S(=O)(=O)N2CCN(Cc3nc4cc(F)ccc4o3)CC2)cc1`, for which the GI50 in the data set on MCF7 was 2.45 µM.

Take `CC(C)S(=O)(=O)N1CCN(Cc2nc3cc(F)ccc3o2)CC1`: the GI50 with MCF7 came to 21.6 µM.

For `CS(=O)(=O)N1CCN(Cc2nc3cc(F)ccc3o2)CC1`, the GI50 in the data set on MCF7 turned out to be 29.8 µM.

In the case of `O=[N+]([O-])c1ccccc1S(=O)(=O)N1CCN(Cc2nc3cc(F)ccc3o2)CC1`, the GI50 in the data set on MCF7 is 5.95 µM.

On to `O=S(=O)(N1CCOCC1)N1CCN(Cc2nc3cc(F)ccc3o2)CC1`, for which the 50% growth inhibitory concentration (GI50) in the data set on MCF7 was 10.3 µM.

With `CN1CCN(S(=O)(=O)N2CCN(Cc3nc4cc(F)ccc4o3)CC2)CC1`, in the data set with MCF7, the GI50 was 7.37 µM.

Regarding `COc1cccc2c1C(=O)c1c(O)c3c(c(O)c1C2=O)C[C@@](O)(C(=O)CO)C[C@@H]3O[C@H]1C[C@H](N)[C@H](O)[C@H](C)O1` [DOXORUBICIN], the GI50 with MCF7 amounted to 0.89 µM; in the data set on MDA-MB-231 [1] it was 0.14 µM; in the data set with BT-549, 2.01 µM; in the data set on T47D, 3.78 µM; in the data set on MDA-MB-468, 0.53 µM. The GI50 at 48 h in data set [2] turned out to be 143 µM.

Consider `CN(C)S(=O)(=O)N1CCN(Cc2nc3cc(F)ccc3o2)CC1`, for which, in the data set on MCF7, the GI50 was determined as 18.3 µM.

With `N#Cc1ccc(C(c2ccc(C#N)cc2)n2cncn2)cc1` [LETROZOLE], the IC50 in the data set on MDA-MB-231 [5] stood at 1.27 µM; at Aromatase [6], 0.29 µM.

For `O=S(=O)(C1CC1)N1CCN(Cc2nc3cc(F)ccc3o2)CC1`, in the data set with MCF7, the concentration for 50% growth inhibition (GI50) came to 25.1 µM.

As for `O=[N+]([O-])c1cccc(S(=O)(=O)N2CCN(Cc3nc4cc(F)ccc4o3)CC2)c1`, the 50% growth inhibitory concentration (GI50) in the data set on MCF7 was determined as 3.25 µM.

On to `COc1ccccc1S(=O)(=O)N1CCN(Cc2nc3cc(F)ccc3o2)CC1`, for which, in the data set on MCF7, the GI50 was 4.63 µM.

Take `Cc1nc(Nc2nc3ccccc3o2)nc(-c2cccc([N+](=O)[O-])c2)c1C(=O)Nc1ccc(F)cc1Cl`: the IC50 with RPMI-8226 was 0.72 µM.

The record behind these values is ChEMBL document CHEMBL6109100, “Discovery of novel benzoxazole analogues as potential anticancer agent selectively targeting aromatase” (Bioorg Med Chem, 2025).
